Test results reported in patent US20130236610A1, “COMPOSITIONS AND METHODS FOR INHIBITING POTATO PATHOGENS” (UNIVERSITY OF IDAHO, priority 2010, published 2013).

What was measured:
Type in all cases: cell-based
Erwinia carotovora [1] = experiment: Volatile exposure of pathogen cultures on PDA in sealed mason jars, radial growth (Example 1); conditions: pure volatile, 7 days at 23° C
Colletotrichum coccodes [2] = experiment: as above; conditions: pure volatile, 7 days at 23° C
Procedure: (§1) In this study, acetaldehyde and 2E-hexenal were chosen as prototype volatiles in order to investigate the use of plant volatiles for the control of potato blemish pathogens in fresh-pack potato packaging. The two main potato blemish disease pathogens, Colletotrichum coccodes (black dot) and Helminthosporium solani (silver scurf) were used in the study. Cultures of the two pathogens, grown on PDA, were exposed to the pure volatiles in sealed mason jars for 7 days at 23° C. Radial fungal growth and the concentration of the volatile were measured daily and the concentration required to inhibit fungal growth was determined. […] 2E-hexenal could be used to control these and other pathogens and extend the storability and shelf-life of potatoes.

Helminthosporium solani [3] = experiment: as above; conditions: pure volatile, 7 days at 23° C
Procedure: as §1

Colletotrichum coccodes [4] = experiment: Pure volatile in 1L jars above plates containing the pathogens, colony diameter (Example 2); conditions: 2.5 μL/L volatile, 1L jar, 23 degree C
Procedure: (§2) […] were chosen as prototype volatiles to investigate the use of plant volatiles for the control of potato blemish pathogens. Three main potato blemish pathogens were used in the study: Erwinia carotovora, Colletotrichum coccodes and Helminthosporium solani.
(§3) 1L jars were used. Pure volatile (2.5-10 μt/L) was inserted into the jars onto the side of the jar above 6cm plates containing the pathogens. Controls and treatments were incubated at 23 degree C. until the control filled the plate. Diameter of the colony (mm) from control and treatments were evaluated daily using calipers.

Erwinia carotovora [5] = experiment: as above; conditions: 2.5 μL/L volatile, 1L jar, 23 degree C
Procedure: as §2, §3

Helminthosporium solani [6] = experiment: as above; conditions: 2.5 μL/L volatile, 1L jar, 23 degree C
Procedure: as §2, §3

Measured: inhibition of pathogen growth

CCC/C=C/C=O [2E-hexenal]
nearly complete inhibition: Erwinia carotovora [1] | Colletotrichum coccodes [2] | Helminthosporium solani [3]

CCC/C=C/C=O [2E-Hexanal]
nearly complete inhibition: Colletotrichum coccodes [4] | Erwinia carotovora [5] | Helminthosporium solani [6]
